Reference: patent US20260028571A1, “BIOREACTORS FOR PERFUSING CELLS” (Ramot at Tel-Aviv University Ltd., priority 2023, published 2026)

How the values were obtained:
[1] = system: malignant mucosal melanoma; experiment: Clinical treatment of the mucosal melanoma patient; type: in vivo, human
Source text: (§1) Blood and tissue samples from a mucosal melanoma, a patient having the following characteristics: • person, malignant mucosal melanoma. • Tissue site: resected from the groin lymph node
This was followed by additional cycles of nivolumab post-surgery as adjuvant therapy resulting in further PD.
The perfusion system could have anticipated the unfavorable prognosis associated with Nivolumab (which was what was originally prescribed by the doctor) within 1-2 weeks, potentially sparing the patient six months of ineffective treatment, side effects, and the high costs as well as the time in which further mutations occurred.

[2] = system: patient-derived mucosal melanoma cells; experiment: Drug testing on patient-derived 3D tumor organoids in the perfusion system; type: cell-based, human; conditions: 96-well 3D tumor organoids with patient-derived PBMCs, FIG. 7
Description: as §1
96-well 3D tumor organoids were generated from the tumor sample (i.e. tumor cells and microenvironment cells, blood vessels and PBMCs were created from the samples. The tumor organoids were cultured in a plate similar to that shown in FIG. 1A. Each treatment was tested on multiple 3D organoids, each treatment corresponding to a single sequence of connected cell wells.
Multiple treatments and combinations were tested on the patient-derived mucosal melanoma cells and the patient-derived PBMCs, as summarized in FIG. 7.

CNC(=O)c1cc(Oc2ccc(NC(=O)Nc3ccc(Cl)c(C(F)(F)F)c3)c(F)c2)ccn1 [Regorafenib]
reduction in tumor size ([1]; within a two-week timeframe): 50%
efficacy [2]: 93%

Atezolizumab
response [2]: 0%

Nivolumab
clinical outcome ([1]; additional cycles post-surgery as adjuvant therapy): further PD
clinical outcome ([1]; neoadjuvant therapy, 4 cycles): progressive disease (PD)
response [2]: 0%

Pembrolizumab
response [2]: 0%
